Test results published in ChEMBL document CHEMBL2396627, “Novel artemisinin derivatives with potential usefulness against liver/colon cancer and viral hepatitis” (Bioorg Med Chem, 2013).
Calls of active or inactive are those of the source. The rule behind the calls is not given here.

Assays:
[1] = Cytotoxicity against human HepG2(2.2.15) cells assessed as reduction in cell viability at 0.1 uM measured on day 21 by natural Red test; format: cell-based; details: hepg2 2.2.15, 0.1 µM
[2] = test system: Bovine viral diarrhea virus strain Oregon C24V; experiment: Antiviral activity against Bovine viral diarrhea virus Oregon C24V genotype 1 […] assessed as reduction in viral RNA release at 50 uM by RT-PCR analysis; format: functional
[3] = Acute toxicity in bovine EBTr cells infected with BVDV assessed as reduction in cell viability at 50 uM after 72 hrs; format: cell-based, Bos taurus; details: cattle
[4] = Acute toxicity in bovine EBTr cells at 50 uM after 72 hrs; format: cell-based, Bos taurus; details: cattle
[5] = test system: EBTr; experiment: Antiviral activity against Bovine viral diarrhea virus Oregon C24V genotype 1 […] infected in bovine EBTr cells assesed as inhibition of virus-induced cytopathic effect at 20 to 100 uM after 72 hrs by MTT assay; format: functional, cell-based; details: Bovine viral diarrhea virus strain Oregon C24V
[6] = Cytotoxicity against bovine EBTr cells up to 100 uM after 72 hrs by MTT assay; format: cell-based, Bos taurus; details: cattle
[7] = Acute toxicity in human LS 174T cells at IC50 after 6 hrs by formazan test; format: cell-based; details: ls174t
[8] = test system: HepG2; experiment: Acute toxicity in human HepG2 cells at IC50 after 6 hrs by formazan test; format: cell-based; details: hepg2, 6 h
[9] = test system: SK-HEP1; experiment: Acute toxicity in human SKHEP1 cells at IC50 after 6 hrs by formazan test; format: cell-based; details: sk-hep1, 6 h
[10] = test system: SK-HEP1; experiment: Cytotoxicity against human SKHEP1 cells after 72 hrs by formazan test; format: functional, cell-based; details: for IC50: SK-HEP1, 72 h
[11] = (§1) Cytotoxicity against human LS 174T cells after 72 hrs by formazan test; format: functional, cell-based; details: LS174T
[12] = test system: HepG2; experiment: Cytotoxicity against human HepG2 cells after 72 hrs by formazan test; format: functional, cell-based; details: for IC50: HepG2, 72 h
[13] = test system: EBTr; experiment: Antiviral activity against Bovine viral diarrhea virus Oregon C24V genotype 1 […] infected in bovine EBTr cells assesed as inhibition of virus-induced cytopathic effect at 50 uM after 72 hrs by MTT assay; format: functional, cell-based; details: Bovine viral diarrhea virus strain Oregon C24V
[14] = Cytotoxicity against human HepG2(2.2.15) cells assessed as reduction in cell viability at 1 uM measured on day 21 by natural Red test; format: cell-based; details: hepg2 2.2.15, 1 µM
[15] = Cytotoxicity against bovine EBTr cells at 20 to 100 uM after 72 hrs by MTT assay; format: cell-based, Bos taurus; details: cattle
[16] = test system: SK-HEP1; experiment: Cytotoxicity against human SKHEP1 cells incubated for 1 hr prior to ferrosanol addition measured after 72 hrs; format: functional, cell-based
[17] = test system: SK-HEP1; experiment: Cytotoxicity against human SKHEP1 cells incubated for 1 hr prior to hemin addition measured after 72 hrs; format: functional, cell-based
[18] = test system: SK-HEP1; experiment: Cytotoxicity against human SKHEP1 cells after 72 hrs in presence of hemin; format: functional, cell-based
[19] = test system: SK-HEP1; experiment: Cytotoxicity against human SKHEP1 cells after 72 hrs in presence of ferrosanol; format: functional, cell-based
[20] = test system: LS174T; experiment: as §1; format: functional, cell-based
[21] = test system: Hepatitis B virus; experiment: Antiviral activity against Hepatitis B virus infected in human HepG2(2.2.15) cells assessed as reduction in HBV-DNA release at < 0.1 uM measured on day 21; format: functional; parameters: scale not given: the % may be the effect or the level left
[22] = Cytotoxicity against human HepG2(2.2.15) cells assessed as reduction in cell viability at 0.1 to 1 uM measured on day 21 by natural Red test; format: cell-based; details: hepg2 2.2.15, 1 µM
[23] = test system: EBTr; experiment: Antiviral activity against Bovine viral diarrhea virus Oregon C24V genotype 1 […] infected in bovine EBTr cells assessed as inhibition of virus-induced cytopathic effect at 50 uM incubated 1 hr prior to ferrosanol addition measured after 72 hrs; format: functional, cell-based; details: Bovine viral diarrhea virus strain Oregon C24V
[24] = test system: EBTr; experiment: Antiviral activity against Bovine viral diarrhea virus Oregon C24V genotype 1 […] infected in bovine EBTr cells assessed as inhibition of virus-induced cytopathic effect at 50 uM incubated 1 hr prior to hemin addition measured after 72 hrs; format: functional, cell-based; details: Bovine viral diarrhea virus strain Oregon C24V

| SMILES | Activity [2] | Activity [3] | Activity [4] | Activity [5] | Activity [6] | Activity [7] | Activity [8] | Activity [9] | IC50 [10] | IC50 [11] | IC50 [12] | Activity [13] | Activity [14] | Activity [15] | other results |
| --- | --- | --- | --- | --- | --- | --- | --- | --- | --- | --- | --- | --- | --- | --- | --- |
| CC(=O)O[C@H]1O[C@@H]2O[C@@]3(C)CC[C@H]4[C@H](C)CC[C@@H]([C@H]1C)[C@@]24OO3 | Active | Non-toxic | Non-toxic | Dose-dependent effect | Non-toxic | Non-toxic | Non-toxic | Non-toxic | 4 µM | 70 µM | 60 µM | Active | – | – | Activity [1]: Toxic |
| C[C@H]1[C@@H](OC(=O)C(C)(C)C)O[C@@H]2O[C@@]3(C)CC[C@H]4[C@H](C)CC[C@@H]1[C@@]24OO3 | Active | Toxic | Non-toxic | Active | – | Non-toxic | Non-toxic | Non-toxic | 9 µM | 70 µM | 40 µM | inactive | Toxic | Toxic | – |
| C[C@@H]1CC[C@H]2[C@@H](C)C(=O)O[C@@H]3O[C@@]4(C)CC[C@@H]1[C@]32OO4 [ARTEMISININ] | – | – | – | – | – | – | – | – | > 200 µM | > 200 µM | > 200 µM | – | – | – | – |
| C[C@H]1[C@@H](OC(=O)C(F)(F)C(F)(F)F)O[C@@H]2O[C@@]3(C)CC[C@H]4[C@H](C)CC[C@@H]1[C@@]24OO3 | inactive | Non-toxic | Non-toxic | Dose-dependent effect | Non-toxic | – | – | – | 150 µM | > 200 µM | 200 µM | Active | – | – | Activity [1]: Toxic |
| C[C@H]1[C@H](OC(=O)CCC(=O)O)O[C@@H]2O[C@@]3(C)CC[C@H]4[C@H](C)CC[C@@H]1[C@@]24OO3 [ARTESUNATE] | – | – | – | – | – | Toxic | Toxic | Toxic | 10 µM | 10 µM | 20 µM | – | – | – | Activity [16]: Active; Activity [17]: Active; Activity [18]: Active; Activity [19]: Active; Activity [10]: Dose-dependent effect; Activity [20]: Dose-dependent effect; Activity [12]: Dose-dependent effect |
| CCCC(=O)O[C@H]1O[C@@H]2O[C@@]3(C)CC[C@H]4[C@H](C)CC[C@@H]([C@H]1C)[C@@]24OO3 | inactive | Non-toxic | Non-toxic | Active | Non-toxic | Non-toxic | Non-toxic | Non-toxic | 2 µM | 130 µM | 100 µM | Active | Toxic | – | – |
| C[C@H]1[C@@H](O)O[C@@H]2O[C@@]3(C)CC[C@H]4[C@H](C)CC[C@@H]1[C@@]24OO3 [ARTENIMOL] | Active | Toxic | Non-toxic | Active | – | – | – | – | 30 µM | 120 µM | 70 µM | Active | Toxic | Toxic | Activity [10]: Dose-dependent effect; Activity [20]: Dose-dependent effect; Activity [12]: Dose-dependent effect |
| C[C@H]1[C@@H](OC(=O)N(C)C)O[C@@H]2O[C@@]3(C)CC[C@H]4[C@H](C)CC[C@@H]1[C@@]24OO3 | inactive | Non-toxic | Non-toxic | Dose-dependent effect | Non-toxic | – | – | – | 25 µM | 100 µM | 70 µM | Active | – | – | Activity [1]: Toxic |
| CCC(C)O[C@H]1O[C@@H]2O[C@@]3(C)CC[C@H]4[C@H](C)CC[C@@H]([C@H]1C)[C@@]24OO3 (some centres not stated) | Active | Toxic | Non-toxic | Active | – | Non-toxic | Non-toxic | Non-toxic | 10 µM | 70 µM | 50 µM | inactive | – | Toxic | Activity [21]: 50%; Activity [22]: Toxic |
| CC1=CO[C@@H]2O[C@]3(C)CC[C@H]4[C@H](C)CC[C@@H]1[C@@]24OO3 [ANHYDRODIHYDROARTEMISININ] | Active | Non-toxic | Non-toxic | Dose-dependent effect | Non-toxic | – | – | – | 30 µM | > 200 µM | 200 µM | Active | – | – | Activity [21]: 50%; Activity [22]: Toxic; Activity [23]: Active; Activity [24]: Active |
| CCCC(CCC)C(=O)O[C@H]1O[C@@H]2O[C@@]3(C)CC[C@H]4[C@H](C)CC[C@@H]([C@H]1C)[C@@]24OO3 | Active | Toxic | Non-toxic | inactive | – | Non-toxic | Non-toxic | Non-toxic | 1 µM | 5 µM | 3 µM | inactive | Toxic | Toxic | Activity [16]: Active; Activity [17]: Active; Activity [18]: Active; Activity [19]: Active |
